Results reported in patent publication US10913720B2, “Benzyloxypyridylcyclopropanecarboxylic acids, pharmaceutical compositions and uses thereof” (Boehringer Ingelheim International GmbH, priority 2017, dated 2021).
Values after ≈ are worked out from the molar mass of the structure shown. Read-outs that look alike come from different tables or passages of the source.

Legend:
human GPR40 receptor = human GPR40 receptor (Homo sapiens, UniProt O14842); assay: IP1 accumulation measurements using the IPOne assay system; type: cell-based; conditions: 1321N1 cells stably expressing human GPR40; 1 h stimulation at 37° C.
human GPR40 receptor, sequence (O14842 whole entry): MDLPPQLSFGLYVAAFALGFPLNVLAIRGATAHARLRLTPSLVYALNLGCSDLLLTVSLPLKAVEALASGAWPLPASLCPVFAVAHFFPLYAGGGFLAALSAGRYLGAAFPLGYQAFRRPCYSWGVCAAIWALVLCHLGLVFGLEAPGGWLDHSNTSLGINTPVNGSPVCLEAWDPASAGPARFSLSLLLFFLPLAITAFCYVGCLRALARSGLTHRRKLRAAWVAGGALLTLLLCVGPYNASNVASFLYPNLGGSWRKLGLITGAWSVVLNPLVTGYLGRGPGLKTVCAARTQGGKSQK
Description: IP1 accumulation measurements using the IPOne assay system—1321N1 cells stably expressing human GPR40 receptor (Euroscreen, Belgium) are seeded 24 h before the assay in white 384-well plates in culture medium containing 10% FCS, 1% Na-Pyruvate and 400 μg/mL G418. IP1 is assayed according to the manufacturer's description (Cisbio Bioassays, France). In brief, the assay is started by substitution of the culture medium by stimulation buffer (Hepes 10 mM, CaCl2) 1 mM, MgCl2 0.5 mM, KCl 4.2 mM, NaCl 146 mM, glucose 5.5 mM and LiCl 50 mM, pH 7.4). Cells are stimulated for 1 h at 37° C., 5% CO2 by addition of the compounds that are diluted in stimulation buffer containing LiCl. Assays are stopped by adding HTRF-conjugates (IP1-d2 and Anti-IP1 cryptate Tb) and lysis buffer, provided by the manufacturer. After an incubation time of 1 h at room temperature plates are measured using an EnVision™, Perkin Elmer. The obtained fluorescence ratios at 665/615 […] are then used to calculate the pEC50 values using Assay Explorer 3.3 Software (Accelrys, Inc.) by interpolation using an IP1 reference curve and subsequent sigmoidal curve fitting allowing for a variable hill slope.

[1] = Aqueous solubility (buffer vs acetonitrile/water, LC-UV); type: physicochemical; conditions: kinetic from dmso stock, 2.5% DMSO
Description: The aqueous solubility of the compounds of the invention is determined by comparing the amount dissolved in buffer to the amount in an acetonitrile/water (1/1) solution. Starting from a 10 mM DMSO stock solution aliquots are diluted with acetonitrile/water (1/1) or buffer, respectively. After 24 h of shaking, the solutions are filtrated and analyzed by LC-UV. The amount dissolved in buffer is compared to the amount in the acetonitrile solution.
Solubility is usually being measured from 0.001 to 0.125 mg/mL at a DMSO concentration of 2.5%. If more than 90% of the compound is dissolved in buffer, the value is marked with “>”.

[2] = pH 2.2, 24 h shaking, read-out: Solubility at pH 2.2
[3] = pH 6.8, 24 h shaking, read-out: Solubility at pH 6.8

| SMILES | EC50 (human GPR40 receptor) [nM] | solubility at 24 h [1, 2] [µg/mL] | solubility at 24 h [1, 3] [µg/mL] |
| --- | --- | --- | --- |
| Cc1cc(OCCC(C)(C)O)cc(C)c1-c1cccc(COc2ccc([C@H]3C[C@@H]3C(=O)O)nc2)c1 [Example 3, (1S,2S)-2-{5-[4′-(3-Hydroxy-3-methyl-butoxy)-2′,6′-dimethyl-biphenyl-3-ylmethoxy]-pyridin-2-yl}-cyclopropanecarboxylic Acid] | 19 | 24 (≈ 50.5 µM) | 40 (≈ 84.1 µM) |
| Cc1cc(OCCC(C)(C)O)cc(C)c1-c1ccc(F)c2c1CC[C@H]2Oc1ccc([C@H]2C[C@@H]2C(=O)O)cc1 [Example 17 in WO 2013/178575, reference compound] |  | < 1 | < 1 |
| Cc1cc(-c2nnn(C)n2)cc(C)c1-c1ccc(F)c2c1CC[C@H]2Oc1ccc([C@H]2C[C@@H]2C(=O)O)cc1 [Example 45 in WO 2013/178575, reference compound] |  | < 1 | < 1 |
| Cc1cc(-c2nnn(C)n2)cc(C)c1-c1cccc(COc2ccc([C@H]3C[C@@H]3C(=O)O)nc2)c1 [Example 1, (1S,2S)-2-{5-[2′,6′-Dimethyl-4′-(2-methyl-2H-tetrazol-5-yl)-biphenyl-3-ylmethoxy]-pyridin-2-yl}-cyclopropanecarboxylic Acid] | 5 | 7 (≈ 15.4 µM) | 19 (≈ 41.7 µM) |
